Test results as given in ChEMBL document CHEMBL5625197, “The mystery of titan hunter: Rationalized striking of the MAPK pathway via Newly synthesized 6-Indolylpyridone-3-Carbonitrile derivatives” (Eur J Med Chem, 2023).

Columns and labels:
[1] = test system: SR; experiment: cells; assay type: functional; conditions: Homo sapiens, 96 h, time 4 day, read-out: GI
Description: Growth inhibition of human SR cells at 10 uM incubated for 4 days by MTT assay relative to control

[2] = test system: HOP-92; experiment: cells; assay type: functional; conditions: Homo sapiens, HOP-92, 96 h, time 4 day, read-out: GI
Description: Growth inhibition of human HOP-92 cells at 10 uM incubated for 4 days by MTT assay relative to control

[3] = test system: RXF 393; experiment: cells; assay type: functional; conditions: Homo sapiens, RXF 393, 96 h, time 4 day, read-out: GI
Description: Growth inhibition of human RXF 393 cells at 10 uM incubated for 4 days by MTT assay relative to control

[4] = test system: HCT-116; experiment: cells; assay type: functional; conditions: Homo sapiens, HCT-116, 96 h, time 4 day, read-out: GI
Description: Growth inhibition of human HCT-116 cells at 10 uM incubated for 4 days by MTT assay relative to control

[5] = test system: SR; experiment: Cytotoxicity against human SR cells assessed as cell growth inhibition incubated for 4 days by MTT assay; assay type: functional; conditions: 96 h, time 4 day
[6] = Cytotoxicity against human PCS-800-011 cells assessed as cell growth inhibition incubated for 4 days by MTT assay
[7] = test system: HOP-92; experiment: Cytotoxicity against human HOP-92 cells assessed as cell growth inhibition incubated for 4 days by MTT assay; assay type: functional; conditions: HOP-92, 96 h, time 4 day
[8] = Cytotoxicity against human MRC5 cells assessed as cell growth inhibition incubated for 4 days by MTT assay
[9] = test system: RXF 393; experiment: Cytotoxicity against human RXF 393 cells assessed as cell growth inhibition incubated for 4 days by MTT assay; assay type: functional; conditions: RXF 393, 96 h, time 4 day
[10] = Cytotoxicity against human HEK293 cells assessed as cell growth inhibition incubated for 4 days by MTT assay
[11] = test system: HCT-116; experiment: Cytotoxicity against human HCT-116 cells assessed as cell growth inhibition incubated for 4 days by MTT assay; assay type: functional; conditions: HCT-116, 96 h, time 4 day
[12] = Cytotoxicity against human FHC cells assessed as cell growth inhibition incubated for 4 days by MTT assay
[13] = Selectivity index, ratio of GI50 for cytotoxicity against human PCS-800-011 cells to GI50 for cytotoxicity against human SR cells; assay type: toxicity, cell-based; conditions: PCS-800-011 cells versus SR cells, read-out: RatioGI50
[14] = Selectivity index, ratio of GI50 for cytotoxicity against human MRC5 cells to GI50 for cytotoxicity against human HOP-92 cells
[15] = Selectivity index, ratio of GI50 for cytotoxicity against human HEK293 cells to GI50 for cytotoxicity against human RXF 393 cells
[16] = Selectivity index, ratio of GI50 for cytotoxicity against human FHC cells to GI50 for cytotoxicity against human HCT-116 cells; assay type: toxicity, cell-based; conditions: FHC cells versus HCT-116 cells, read-out: RatioGI50
[17] = molecular target: Epidermal growth factor receptor (Homo sapiens, UniProt P00533); experiment: Inhibition of wild type EGFR (unknown origin)
Chain of Epidermal growth factor receptor (Homo sapiens, UniProt P00533) (P00533 whole entry): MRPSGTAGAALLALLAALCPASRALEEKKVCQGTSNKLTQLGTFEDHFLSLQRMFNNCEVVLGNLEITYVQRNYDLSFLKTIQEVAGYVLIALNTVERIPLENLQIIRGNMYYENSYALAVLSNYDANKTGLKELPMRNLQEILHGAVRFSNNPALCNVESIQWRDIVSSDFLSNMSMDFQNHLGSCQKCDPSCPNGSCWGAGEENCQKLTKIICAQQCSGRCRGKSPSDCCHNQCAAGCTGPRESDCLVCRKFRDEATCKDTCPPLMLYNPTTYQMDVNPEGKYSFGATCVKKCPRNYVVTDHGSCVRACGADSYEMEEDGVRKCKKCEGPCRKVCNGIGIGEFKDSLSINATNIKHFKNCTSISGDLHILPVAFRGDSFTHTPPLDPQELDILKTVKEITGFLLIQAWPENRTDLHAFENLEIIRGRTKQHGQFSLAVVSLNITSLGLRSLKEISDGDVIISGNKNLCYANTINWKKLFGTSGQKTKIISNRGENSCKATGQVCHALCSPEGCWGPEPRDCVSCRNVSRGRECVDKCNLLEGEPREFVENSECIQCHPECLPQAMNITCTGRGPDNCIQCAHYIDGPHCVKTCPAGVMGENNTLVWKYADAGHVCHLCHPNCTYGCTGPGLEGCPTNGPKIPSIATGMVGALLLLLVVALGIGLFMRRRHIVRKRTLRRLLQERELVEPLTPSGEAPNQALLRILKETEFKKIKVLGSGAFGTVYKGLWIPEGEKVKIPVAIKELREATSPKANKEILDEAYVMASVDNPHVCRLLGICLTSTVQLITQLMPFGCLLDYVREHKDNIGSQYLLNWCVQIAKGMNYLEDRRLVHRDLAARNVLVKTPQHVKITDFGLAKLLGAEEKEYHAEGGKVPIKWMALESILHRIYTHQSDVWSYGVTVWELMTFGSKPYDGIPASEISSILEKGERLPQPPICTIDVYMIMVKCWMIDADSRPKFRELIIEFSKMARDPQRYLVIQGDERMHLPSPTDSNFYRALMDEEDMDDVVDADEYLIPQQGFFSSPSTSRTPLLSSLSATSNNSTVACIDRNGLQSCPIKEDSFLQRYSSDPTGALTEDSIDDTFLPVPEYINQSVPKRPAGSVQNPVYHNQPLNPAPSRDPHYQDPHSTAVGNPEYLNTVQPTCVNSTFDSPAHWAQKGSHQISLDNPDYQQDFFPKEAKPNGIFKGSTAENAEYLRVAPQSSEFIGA

[18] = molecular target: Epidermal growth factor receptor (Homo sapiens, UniProt P00533, T790M); experiment: Inhibition of EGFR T790M mutant (unknown origin)
Chain of Epidermal growth factor receptor (Homo sapiens, UniProt P00533, T790M) (P00533 25-1210 T790M limits assumed): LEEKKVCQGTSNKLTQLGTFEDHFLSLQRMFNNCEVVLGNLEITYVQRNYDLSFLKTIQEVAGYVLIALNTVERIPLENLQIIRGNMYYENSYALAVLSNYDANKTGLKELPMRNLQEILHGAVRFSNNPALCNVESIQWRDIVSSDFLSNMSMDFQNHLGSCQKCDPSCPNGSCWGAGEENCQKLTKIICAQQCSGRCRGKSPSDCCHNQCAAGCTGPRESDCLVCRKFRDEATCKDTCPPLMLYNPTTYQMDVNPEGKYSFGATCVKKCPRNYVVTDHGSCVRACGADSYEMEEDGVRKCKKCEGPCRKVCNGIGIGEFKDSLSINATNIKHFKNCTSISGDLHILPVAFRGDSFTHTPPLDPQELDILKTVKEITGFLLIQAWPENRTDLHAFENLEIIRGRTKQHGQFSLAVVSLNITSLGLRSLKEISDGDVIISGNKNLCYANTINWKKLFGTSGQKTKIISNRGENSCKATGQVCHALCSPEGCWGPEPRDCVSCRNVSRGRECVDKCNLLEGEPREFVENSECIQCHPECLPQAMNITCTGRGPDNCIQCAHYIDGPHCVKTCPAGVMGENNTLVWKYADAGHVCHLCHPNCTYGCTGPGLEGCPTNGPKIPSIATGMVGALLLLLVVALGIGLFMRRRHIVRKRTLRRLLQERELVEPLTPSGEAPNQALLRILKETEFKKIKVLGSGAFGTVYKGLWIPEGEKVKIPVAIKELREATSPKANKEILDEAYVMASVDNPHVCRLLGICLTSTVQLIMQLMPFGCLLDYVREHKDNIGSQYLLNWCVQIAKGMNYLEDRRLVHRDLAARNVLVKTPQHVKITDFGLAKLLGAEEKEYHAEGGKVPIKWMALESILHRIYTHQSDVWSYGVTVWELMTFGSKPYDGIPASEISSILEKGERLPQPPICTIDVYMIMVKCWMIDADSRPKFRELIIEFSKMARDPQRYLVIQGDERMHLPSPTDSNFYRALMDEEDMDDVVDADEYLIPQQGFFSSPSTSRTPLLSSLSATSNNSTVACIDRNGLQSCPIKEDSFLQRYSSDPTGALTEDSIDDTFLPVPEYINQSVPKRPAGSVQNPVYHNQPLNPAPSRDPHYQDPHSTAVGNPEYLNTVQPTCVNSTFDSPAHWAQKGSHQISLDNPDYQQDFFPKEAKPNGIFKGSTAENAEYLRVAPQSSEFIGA

[19] = molecular target: Hepatocyte growth factor receptor (Homo sapiens, UniProt P08581); experiment: Inhibition of c-Met (unknown origin)
[20] = molecular target: Serine/threonine-protein kinase B-raf (Homo sapiens, UniProt P15056); experiment: Inhibition of wild type B-RAF (unknown origin)
Chain of Serine/threonine-protein kinase B-raf (Homo sapiens, UniProt P15056) (P15056 whole entry): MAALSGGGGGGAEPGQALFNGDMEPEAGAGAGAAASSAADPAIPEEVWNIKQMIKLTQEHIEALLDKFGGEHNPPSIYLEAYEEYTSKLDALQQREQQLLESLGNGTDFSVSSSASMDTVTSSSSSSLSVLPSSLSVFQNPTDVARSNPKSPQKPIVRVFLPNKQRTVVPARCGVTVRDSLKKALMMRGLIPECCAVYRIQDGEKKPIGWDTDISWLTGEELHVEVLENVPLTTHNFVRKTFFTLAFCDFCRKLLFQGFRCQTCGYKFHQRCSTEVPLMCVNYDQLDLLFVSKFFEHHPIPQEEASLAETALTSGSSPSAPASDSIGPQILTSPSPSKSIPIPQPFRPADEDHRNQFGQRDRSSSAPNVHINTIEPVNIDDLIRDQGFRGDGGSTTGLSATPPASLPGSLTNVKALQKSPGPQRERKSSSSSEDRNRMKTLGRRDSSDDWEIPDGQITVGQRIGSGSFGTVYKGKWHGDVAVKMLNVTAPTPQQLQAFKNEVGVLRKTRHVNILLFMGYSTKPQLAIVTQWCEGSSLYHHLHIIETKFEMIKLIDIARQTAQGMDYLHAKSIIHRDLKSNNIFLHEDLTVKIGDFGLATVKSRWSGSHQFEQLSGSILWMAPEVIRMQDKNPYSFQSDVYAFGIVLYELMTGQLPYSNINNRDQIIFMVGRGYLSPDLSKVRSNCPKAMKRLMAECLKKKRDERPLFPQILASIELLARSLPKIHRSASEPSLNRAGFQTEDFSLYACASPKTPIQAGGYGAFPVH

[21] = molecular target: Serine/threonine-protein kinase B-raf (Homo sapiens, UniProt P15056, V600E); experiment: Inhibition of B-RAF V600E mutant (unknown origin)
Chain of Serine/threonine-protein kinase B-raf (Homo sapiens, UniProt P15056, V600E) (P15056 2-766 V600E limits assumed): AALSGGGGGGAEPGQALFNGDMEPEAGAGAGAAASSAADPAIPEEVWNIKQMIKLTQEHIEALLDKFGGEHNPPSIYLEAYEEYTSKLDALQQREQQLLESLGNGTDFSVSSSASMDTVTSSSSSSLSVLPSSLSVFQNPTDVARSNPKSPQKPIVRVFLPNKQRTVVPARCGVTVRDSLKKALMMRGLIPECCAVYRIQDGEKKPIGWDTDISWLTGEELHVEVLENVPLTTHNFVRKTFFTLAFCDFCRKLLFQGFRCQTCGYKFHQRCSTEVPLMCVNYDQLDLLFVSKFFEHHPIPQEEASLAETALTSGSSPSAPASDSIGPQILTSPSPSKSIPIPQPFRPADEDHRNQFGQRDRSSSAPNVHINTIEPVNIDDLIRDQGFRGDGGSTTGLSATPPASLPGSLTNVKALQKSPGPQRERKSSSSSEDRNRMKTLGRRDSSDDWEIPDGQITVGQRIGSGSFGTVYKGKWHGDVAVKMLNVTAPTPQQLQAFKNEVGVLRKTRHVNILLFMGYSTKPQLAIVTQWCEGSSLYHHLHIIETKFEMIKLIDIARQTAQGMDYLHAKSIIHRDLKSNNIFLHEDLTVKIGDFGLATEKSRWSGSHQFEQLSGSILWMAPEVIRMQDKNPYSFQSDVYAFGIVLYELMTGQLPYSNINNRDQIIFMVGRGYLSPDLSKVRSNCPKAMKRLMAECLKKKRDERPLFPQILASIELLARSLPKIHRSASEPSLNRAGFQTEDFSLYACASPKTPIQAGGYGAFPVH

[22] = molecular target: Cyclin-dependent kinase 4 (Homo sapiens, UniProt P11802); experiment: Inhibition of CDK4 (unknown origin)
Chain of Cyclin-dependent kinase 4 (P11802 whole entry): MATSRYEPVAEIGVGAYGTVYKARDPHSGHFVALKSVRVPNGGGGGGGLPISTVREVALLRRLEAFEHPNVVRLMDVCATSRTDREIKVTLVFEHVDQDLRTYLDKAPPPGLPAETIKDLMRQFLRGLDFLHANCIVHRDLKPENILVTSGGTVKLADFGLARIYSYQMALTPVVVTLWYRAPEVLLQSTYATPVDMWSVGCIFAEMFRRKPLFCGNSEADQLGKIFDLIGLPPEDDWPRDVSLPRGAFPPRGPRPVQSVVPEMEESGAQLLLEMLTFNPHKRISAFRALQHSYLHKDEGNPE

[23] = molecular target: Cyclin-dependent kinase 6 (Homo sapiens, UniProt Q00534); experiment: Inhibition of CDK6 (unknown origin)
Chain of Cyclin-dependent kinase 6 (Q00534 whole entry): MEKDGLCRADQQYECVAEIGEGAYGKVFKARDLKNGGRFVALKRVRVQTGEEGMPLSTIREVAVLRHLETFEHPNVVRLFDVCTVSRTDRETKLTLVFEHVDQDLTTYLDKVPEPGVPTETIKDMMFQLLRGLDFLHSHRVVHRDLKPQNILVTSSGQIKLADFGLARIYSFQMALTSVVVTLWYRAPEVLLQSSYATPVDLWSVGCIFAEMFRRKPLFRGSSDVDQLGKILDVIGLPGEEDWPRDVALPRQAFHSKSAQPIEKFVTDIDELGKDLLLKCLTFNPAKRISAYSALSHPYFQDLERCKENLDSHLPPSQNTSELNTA

[24] = test system: HOP-92; experiment: Induction of cell cycle arrest in human HOP-92 cells assessed as accumulation of cells at G0/G1 phase (reference value: 54.83 %); assay type: functional
[25] = test system: HOP-92; experiment: Induction of cell cycle arrest in human HOP-92 cells assessed as accumulation of cells at S phase (reference value: 29.57 %); assay type: functional
[26] = test system: HOP-92; experiment: Induction of cell cycle arrest in human HOP-92 cells assessed as accumulation of cells at G2/M phase (reference value: 15.6 %); assay type: functional
[27] = test system: HOP-92; experiment: Induction of cell cycle arrest in human HOP-92 cells assessed as cell aggregation (reference value: 1.77 %); assay type: functional
[28] = test system: HOP-92; experiment: Induction of cell cycle arrest in human HOP-92 cells assessed as cell debris (reference value: 2.18 %); assay type: functional
[29] = test system: HOP-92; experiment: Induction of apoptosis in human HOP-92 cells assessed as early apoptotic rate by Annexin V/ PI staining based flow cytometry (reference value: 0.42 %); assay type: functional
[30] = test system: HOP-92; experiment: Induction of apoptosis in human HOP-92 cells assessed as late apoptotic rate by Annexin V/ PI staining based flow cytometry (reference value: 0.26 %); assay type: functional
[31] = test system: HOP-92; experiment: Induction of apoptosis in human HOP-92 cells assessed as total apoptotic rate by Annexin V/ PI staining based flow cytometry (reference value: 2.28 %); assay type: functional
[32] = test system: HOP-92; experiment: Induction of apoptosis in human HOP-92 cells assessed as necrosis rate by Annexin V/ PI staining based flow cytometry (reference value: 1.6 %); assay type: functional
[33] = test system: HOP-92; experiment: Induction of apoptosis in human HOP-92 cells assessed as fold change in caspase-3 gene expression by RT-PCR analysis; assay type: functional
[34] = test system: HOP-92; experiment: Induction of apoptosis in human HOP-92 cells assessed as fold change in caspase-8 gene expression by RT-PCR analysis; assay type: functional
[35] = test system: HOP-92; experiment: Induction of apoptosis in human HOP-92 cells assessed as fold change in caspase-9 gene expression by RT-PCR analysis; assay type: functional
[36] = test system: HOP-92; experiment: Induction of apoptosis in human HOP-92 cells assessed as fold change in p53 gene expression by RT-PCR analysis; assay type: functional
[37] = test system: HOP-92; experiment: Induction of apoptosis in human HOP-92 cells assessed as fold change in Bax gene expression by RT-PCR analysis; assay type: functional
[38] = test system: HOP-92; experiment: Induction of apoptosis in human HOP-92 cells assessed as fold change in ratio of Bax/Bcl-2 gene expression by RT-PCR analysis; assay type: functional
[39] = test system: HOP-92; experiment: Induction of apoptosis in human HOP-92 cells assessed as fold change in Bcl-2 gene expression by RT-PCR analysis; assay type: functional
[40] = test system: HOP-92; experiment: Induction of apoptosis in human HOP-92 cells assessed as fold change in PARP1 gene expression by RT-PCR analysis; assay type: functional
[41] = test system: HOP-92; experiment: Induction of apoptosis in human HOP-92 cells assessed as fold change in TNFR1 gene expression by RT-PCR analysis; assay type: functional
[42] = test system: HOP-92; experiment: Induction of apoptosis in human HOP-92 cells assessed as PARP1 gene expression level by RT-PCR analysis relative to control; assay type: functional
[43] = test system: HOP-92; experiment: Inhibition of cell migration in human HOP-92 cells incubated for 15 to 20 mins by crystal violet staining based trans-well assay relative to control; assay type: functional; conditions: time 15-20 min
[44] = test system: HOP-92; experiment: Inhibition of cell invasion in human HOP-92 cells incubated for 15 to 20 mins by crystal violet staining based trans-well assay relative to control; assay type: functional; conditions: time 15-20 min
[45] = Cytotoxicity against human PCS-800-011 cells assessed as fold change in cell growth inhibition incubated for 4 days by MTT assay; assay type: toxicity, cell-based; conditions: pcs-800-011, 96 h, time 4 day
[46] = test system: HOP-92; experiment: Inhibition of cell migration in human HOP-92 cells assessed as fold decrease in cell count incubated for 15 to 20 mins by crystal violet staining based trans-well assay; assay type: functional; conditions: time 15-20 min
[47] = test system: HOP-92; experiment: Inhibition of colony formation in human HOP-92 cells incubated for 24 hrs by crystal violet staining based assay relative to control; assay type: functional

N#Cc1c(-c2ccc(Cl)cc2Cl)cc(-c2c[nH]c3ccccc23)[nH]c1=O
inhibition of growth at 10 µM [1]: 74.7%
inhibition of growth at 10 µM [2]: 79.8%
inhibition of growth at 10 µM [3]: 58.4%
inhibition of growth at 10 µM [4]: 82.8%
GI50 [5]: 2770 nM
GI50 at 96 h [6]: 49700 nM
GI50 [7]: 750 nM
GI50 at 96 h [8]: 28500 nM
GI50 [9]: 3120 nM
GI50 at 96 h [10]: 22400 nM
GI50 [11]: 2530 nM
GI50 at 96 h [12]: 26800 nM
selectivity ratio [13]: 18
RatioGI50 [14]: 37.87
RatioGI50 [15]: 7.18
selectivity ratio [16]: 10.6
IC50 [17]: 281 nM
IC50 [18]: 69 nM
IC50 [19]: 205 nM
IC50 [20]: 112 nM
IC50 [21]: 83 nM
IC50 [22]: 95 nM
IC50 [23]: 184 nM
Activity [24]: 59.18%
Activity [25]: 34.11%
Activity [26]: 6.71%
Activity [27]: 1.88%
Activity [28]: 2.12%
Activity [29]: 24.18%
Activity [30]: 14.91%
Activity [31]: 46.71%
Activity [32]: 7.62%
fold change (FC) [33]: 7.93
fold change (FC) [34]: 2.99
fold change (FC) [35]: 6.75
fold change (FC) [36]: 5.97
fold change (FC) [37]: 5.49
fold change (FC) [38]: 30.5
fold change (FC) [39]: 0.18
fold change (FC) [40]: 0.23
fold change (FC) [41]: 0.27
Activity [42]: 20%
inhibition (INH) [43]: 61.59%
inhibition (INH) [44]: 49.99%
fold change (FC) [45]: 2.3
fold change (FC) [46]: 2.6
inhibition (INH) [47]: 61.6%
